Literature values, collected in patent US6348490B1, “Dosage forms containing thioctic acid or solid salts of thioctic acid with improved release and bioavailability” (Asta Medica Aktiengesellschaft, priority 1994, dated 2002).

Tests used:
[1] = factor versus racemate
[2] = factor versus racemate; remark: listed apart in the source

Compound | anti-nociceptive (analgesic) action, factor stronger than that of the racemate [1] | anti-inflammatory action, factor stronger than that of the racemate [2]
O=C(O)CCCC[C@H]1CCSS1 (single isomer, unassigned) [S-enantiomer, S-thioctic acid] | 6 | –
O=C(O)CCCC[C@@H]1CCSS1 [R-Thioctic acid, R-thioctic acid] | – | 10
